# From patent US20250313563A1, “GLYCOGEN SYNTHASE KINASE 3 INHIBITORS AND USES THEREOF” (The Broad Institute, Inc., priority 2022, published 2025)
# Where two headings read alike, the source gives them in different places.
# Tests used:
# [1] = target: GSK3α (GST-full length GSK3α) (Homo sapiens (Human), UniProt P49840); assay: GSK3α TR-FRET kinase assay; assay type: biochemical
# Method in brief: (§1)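 Compound preincubated 30 min, then 1 nM GST-full-length GSK3α or GSK3b run 100 min at ambient temperature with 200 nM biotinylated, S645-prephosphorylated glycogen synthase 631-650 peptide in Tris pH 7.5, MgCl2, DTT, BSA, 1% DMSO. ATP 4 μM (α) or 2 μM (β), or 1 mM. EDTA-quenched; Tb-anti-pSer641/streptavidin-d2 TR-FRET 665/615 ratio gave IC50.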
# [2] = target: GSK3b (GST-full length GSK3b) (Homo sapiens (Human), UniProt P49841); assay: GSK3b TR-FRET kinase assay; assay type: biochemical
# Sequence of GSK3b (GST-full length GSK3b) (P49841 whole entry): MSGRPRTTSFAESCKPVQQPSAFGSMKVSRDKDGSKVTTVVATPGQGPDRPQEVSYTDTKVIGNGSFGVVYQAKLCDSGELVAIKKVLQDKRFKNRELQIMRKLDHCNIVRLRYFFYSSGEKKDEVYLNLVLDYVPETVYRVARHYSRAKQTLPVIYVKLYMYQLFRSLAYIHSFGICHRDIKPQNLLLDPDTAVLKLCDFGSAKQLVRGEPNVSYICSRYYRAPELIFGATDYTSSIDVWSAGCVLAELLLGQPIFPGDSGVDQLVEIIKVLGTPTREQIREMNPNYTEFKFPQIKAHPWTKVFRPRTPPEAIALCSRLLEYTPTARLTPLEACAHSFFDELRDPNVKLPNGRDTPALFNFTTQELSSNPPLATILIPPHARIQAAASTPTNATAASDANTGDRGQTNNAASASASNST
# Method in brief: as §1
# [3] = 1 nM GSK3α, 4 μM ATP, 30 minute preincubation, Table 16, read-out: GSK3-A TR-FRET BIOCHEMICAL (TR-FRET)
# [4] = GSK3-A (TR-FRET 1 mM ATP), GMean, IC50, 1 mM ATP, geometric mean
# [5] = 1 nM GSK3b, 2 μM ATP, 30 minute preincubation, Table 16, read-out: GSK3-B TR-FRET BIOCHEMICAL (TR-FRET)
# [6] = GSK3-B (TR-FRET 1 mM ATP), GMean, IC50, 1 mM ATP, geometric mean
# [7] = read-out: GSK3-A (TR-FRET 1 mM ATP), GMean, IC50, 1 mM ATP, geometric mean
# [8] = read-out: GSK3-B (TR-FRET 1 mM ATP), GMean, IC50, 1 mM ATP, geometric mean
# [9] = 1 nM GSK3α, 4 μM ATP, 30 minute preincubation, Table 16, read-out: GSK3-A TR-FRET BIOCHEMICAL (TR-FRET), IC50
# [10] = 1 nM GSK3b, 2 μM ATP, 30 minute preincubation, Table 16, read-out: GSK3-B TR-FRET BIOCHEMICAL (TR-FRET), IC50
# [11] = 1 nM GSK3α, 4 μM ATP, 30 minute preincubation, read-out: GSK3-A TR-FRET BIOCHEMICAL (TR-FRET), IC50
# [12] = 1 nM GSK3b, 2 μM ATP, 30 minute preincubation, read-out: GSK3-B TR-FRET BIOCHEMICAL (TR-FRET), IC50
# [13] = 1 nM GSK3α, 4 μM ATP, 30 minute preincubation, geometric mean, read-out: GSK3-A TR-FRET BIOCHEMICAL (TR-FRET), GMean, IC50
# [14] = 1 nM GSK3b, 2 μM ATP, 30 minute preincubation, geometric mean, read-out: GSK3-B TR-FRET BIOCHEMICAL (TR-FRET), GMean, IC50
# Sequence of GSK3α (GST-full length GSK3α) (P49840 whole entry): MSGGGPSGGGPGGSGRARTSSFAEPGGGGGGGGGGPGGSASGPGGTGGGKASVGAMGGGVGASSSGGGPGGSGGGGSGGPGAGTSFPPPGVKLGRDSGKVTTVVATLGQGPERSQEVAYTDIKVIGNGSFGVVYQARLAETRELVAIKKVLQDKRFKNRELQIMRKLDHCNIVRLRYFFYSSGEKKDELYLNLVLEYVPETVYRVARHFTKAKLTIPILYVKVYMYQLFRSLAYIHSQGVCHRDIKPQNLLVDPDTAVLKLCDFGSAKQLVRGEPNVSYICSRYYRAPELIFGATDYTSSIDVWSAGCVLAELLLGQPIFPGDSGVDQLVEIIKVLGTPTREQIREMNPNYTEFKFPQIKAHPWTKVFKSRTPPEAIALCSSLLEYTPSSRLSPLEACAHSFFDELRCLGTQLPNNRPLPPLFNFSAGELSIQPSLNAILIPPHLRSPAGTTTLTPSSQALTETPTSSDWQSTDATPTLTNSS
compound,measurement,setting,value
Cn1cc(S(=O)(=O)N2CC[C@@]3(C2)C2=C(CC(C)(C)CC2=O)Nc2n[nH]cc23)cn1 [Compound 951726],IC50,[1]; [3],≤ 100 nM
same,IC50,[1]; [4],1000 to 5000 nM
same,IC50,[2]; [5],≤ 100 nM
same,IC50,[2]; [6],1000 to 5000 nM
CCC1(c2cccc(OCC(F)F)c2)C2=C(CC(C)(C)CC2=O)Nc2n[nH]cc21 (centres unmarked) [Compound 948793],IC50,[1]; [3],≤ 100 nM
same,IC50,[1]; [7],100 to 1000 nM
same,IC50,[2]; [5],≤ 100 nM
same,IC50,[2]; [8],> 5000 nM
CC[C@@H]1C[C@]2(CCO1)C1=C(CC(C)(C)CC1=O)Nc1n[nH]cc12 [Compound 907328],IC50,[1]; [9],100 to 1000 nM
same,IC50,[2]; [10],1000 to 5000 nM
CC(=O)N1CC2(C1)CC1(CO2)C2=C(CC(C)(C)CC2=O)Nc2n[nH]cc21 (centres unmarked) [Compound 913058],IC50,[1]; [11],≤ 100 nM
same,IC50,[1]; [7],≤ 100 nM
same,IC50,[2]; [12],≤ 100 nM
same,IC50,[2]; [8],100 to 1000 nM
CCn1ccc(S(=O)(=O)N2CCC3(CC2)C2=C(CC(C)(C)CC2=O)Nc2n[nH]cc23)n1 [Compound 945671],IC50,[1]; [3],≤ 100 nM
same,IC50,[2]; [5],≤ 100 nM
CCC1(c2cccc(-c3ccnn3C)c2)C2=C(CC(C)(C)CC2=O)Nc2n[nH]c(C)c21 (centres unmarked) [Compound 913023],IC50,[1]; [7],≤ 100 nM
same,IC50,[2]; [8],100 to 1000 nM
CCC1(c2cccc(N3CCCc4ncccc43)c2)C2=C(CC(C)(C)CC2=O)Nc2n[nH]cc21 (centres unmarked) [Compound 917076],IC50,[1]; [9],≤ 100 nM
same,IC50,[2]; [10],≤ 100 nM
C[C@H]1C[C@]2(CCN1S(C)(=O)=O)C1=C(CC(C)(C)CC1=O)Nc1n[nH]cc12 [Compound 926827],IC50,[1]; [3],≤ 100 nM
same,IC50,[2]; [5],≤ 100 nM
CC[C@]1(c2ccccc2)C2=C(CC3(CCC3)CC2=O)Nc2n[nH]cc21 [Compound 819572],IC50,[1]; [13],> 5000 nM
same,IC50,[2]; [14],> 5000 nM
CC[C@]1(c2ccccc2)C2=C(CC(C)(C)[C@@H](F)C2=O)Nc2n[nH]cc21 [Compound 826766],IC50,[1]; [13],100 to 1000 nM
same,IC50,[2]; [14],100 to 1000 nM
CC[C@]1(c2cccc(S(=O)(=O)CCOC)c2)C2=C(CC(C)(C)CC2=O)Nc2n[nH]cc21 [Compound 943546],IC50,[1]; [3],1000 to 5000 nM
same,IC50,[2]; [5],> 5000 nM
Cc1[nH]nc2c1C(C)(c1cccc(C(F)(F)F)c1)C1=C(CC(C)(C)CC1=O)N2 (centres unmarked) [Compound 811556],IC50,[1]; [13],≤ 100 nM
same,IC50,[2]; [14],≤ 100 nM
CCC1(c2cccc(N(C)c3cccnn3)c2)C2=C(CC(C)(C)CC2=O)Nc2n[nH]cc21 (centres unmarked) [Compound 911976],IC50,[1]; [9],100 to 1000 nM
same,IC50,[2]; [10],> 5000 nM
CCC1(c2cccc(-c3cc(C)nnc3C)c2)C2=C(CC(C)(C)NC2=O)Nc2n[nH]c(C(F)(F)F)c21 (centres unmarked) [Compound 949174],IC50,[1]; [13],≤ 100 nM
same,IC50,[1]; [7],100 to 1000 nM
same,IC50,[2]; [14],≤ 100 nM
same,IC50,[2]; [8],100 to 1000 nM
CC1(C)CC(=O)C2=C(C1)Nc1n[nH]cc1C21CN(Cc2ccccn2)C1 [Compound 929438],IC50,[1]; [9],> 5000 nM
same,IC50,[2]; [10],> 5000 nM
CC[C@]1(c2cccc(N(C)c3cc(C)cc(C)n3)c2)C2=C(CC(C)(C)CC2=O)Nc2n[nH]cc21 [Compound 945610],IC50,[1]; [3],≤ 100 nM
same,IC50,[2]; [5],100 to 1000 nM
CCC1(c2cccc(-c3ccnc(C(F)(F)F)c3)c2)C2=C(CC(C)(C)CC2=O)Nc2n[nH]cc21 (centres unmarked) [Compound 913350],IC50,[1]; [9],100 to 1000 nM
same,IC50,[1]; [7],≤ 100 nM
same,IC50,[2]; [10],≤ 100 nM
same,IC50,[2]; [8],100 to 1000 nM
CC(C)(C)Cc1[nH]nc2c1[C@@](C)(c1cccc(S(=O)(=O)C(F)(F)F)c1)C1=C(CC(C)(C)CC1=O)N2 [Compound 126396],IC50,[1]; [7],> 5000 nM
same,IC50,[2]; [8],> 5000 nM
CC[C@]1(c2ccccc2)C2=C(Nc3n[nH]cc31)[C@H](C)C[C@@H](C)C2=O [Compound 865201],IC50,[1]; [13],≤ 100 nM
same,IC50,[2]; [14],100 to 1000 nM
CC1(C)CC(=O)C2=C(C1)Nc1n[nH]cc1C21CCC2(CCC(=O)N2C(=O)OC(C)(C)C)CC1 (centres unmarked) [Compound 912217],IC50,[1]; [11],1000 to 5000 nM
same,IC50,[2]; [12],> 5000 nM
CCC1(c2cccc(N(CCOC)C(C)=O)c2)C2=C(CC(C)(C)CC2=O)Nc2n[nH]cc21 (centres unmarked) [Compound 893306],IC50,[1]; [9],≤ 100 nM
same,IC50,[2]; [10],≤ 100 nM
CCC1(c2cccc(N(C)c3ccnnc3)c2)C2=C(CC(C)(C)CC2=O)Nc2n[nH]cc21 (centres unmarked) [Compound 943492],IC50,[1]; [3],≤ 100 nM
same,IC50,[2]; [5],≤ 100 nM
CCC1(c2cccc(-c3ccnc(C(C)O)c3)c2)C2=C(CC(C)(C)CC2=O)Nc2n[nH]cc21 (centres unmarked) [Compound 944029],IC50,[1]; [3],≤ 100 nM
same,IC50,[2]; [5],100 to 1000 nM
CCC1(c2cccc(C(F)(F)C(F)(F)F)c2)C2=C(CC(C)(C)CC2=O)Nc2n[nH]cc21 (centres unmarked) [Compound 948615],IC50,[1]; [3],≤ 100 nM
same,IC50,[2]; [5],≤ 100 nM
CC1(C)CC(=O)C2=C(C1)Nc1n[nH]cc1C21COC2(CN(C(=O)C3CCCCC3)C2)C1 (centres unmarked) [Compound 947291],IC50,[1]; [11],≤ 100 nM
same,IC50,[2]; [12],100 to 1000 nM
CCOc1ccc(S(=O)(=O)N2CCC3(CC2)C2=C(CC(C)(C)CC2=O)Nc2n[nH]cc23)cc1 [Compound 945670],IC50,[1]; [3],≤ 100 nM
same,IC50,[1]; [4],100 to 1000 nM
same,IC50,[2]; [5],≤ 100 nM
same,IC50,[2]; [6],1000 to 5000 nM
CCC1(c2cccc(-c3ccnc(C)c3C)c2)C2=C(CC(C)(C)CC2=O)Nc2n[nH]c(C(F)(F)F)c21 (centres unmarked) [Compound 947328],IC50,[1]; [3],100 to 1000 nM
same,IC50,[2]; [5],100 to 1000 nM
CC[C@@]1(c2cccc(S(=O)(=O)C3CC3)c2)C2=C(CC(C)(C)NC2=O)Nc2n[nH]cc21 [Compound 947803],IC50,[1]; [13],≤ 100 nM
same,IC50,[2]; [14],≤ 100 nM
CC1(C)CC2=C(C(=O)[C@@H]1F)C1(CCOCC1)c1c[nH]nc1N2 [Compound 883835],IC50,[1]; [3],100 to 1000 nM
same,IC50,[2]; [5],100 to 1000 nM
CC[C@]1(c2cccc(C3CN(C(C)=O)C3)c2)C2=C(CC(C)(C)CC2=O)Nc2n[nH]cc21 [Compound 949132],IC50,[1]; [3],> 5000 nM
same,IC50,[2]; [5],> 5000 nM
CCC1(c2cccc(-c3cnn4c3CCCC4)c2)C2=C(CC(C)(C)CC2=O)Nc2n[nH]cc21 (centres unmarked) [Compound 945543],IC50,[1]; [3],≤ 100 nM
same,IC50,[1]; [7],100 to 1000 nM
same,IC50,[2]; [5],≤ 100 nM
same,IC50,[2]; [8],1000 to 5000 nM
CCC1(c2cccc(-c3ccnc(C)c3)c2)C2=C(CC(C)(C)CC2=O)Nc2n[nH]c(C(F)(F)F)c21 (centres unmarked) [Compound 917289],IC50,[1]; [9],100 to 1000 nM
same,IC50,[1]; [7],> 5000 nM
same,IC50,[2]; [10],1000 to 5000 nM
same,IC50,[2]; [8],> 5000 nM
CC1(C)CC(=O)C2=C(C1)Nc1n[nH]cc1C21CCS(=O)(=O)CC1 [Compound 896013],IC50,[1]; [3],100 to 1000 nM
same,IC50,[2]; [5],100 to 1000 nM
CC1(C)CC(=O)C2=C(C1)Nc1n[nH]cc1[C@@]21CCO[C@H](C(C)(C)C)C1 [Compound 912107],IC50,[1]; [9],> 5000 nM
same,IC50,[2]; [10],> 5000 nM
CC[C@]1(c2cccc(C(C)C)c2)C2=C(CC(C)(C)CC2=O)Nc2n[nH]cc21 [Compound 810375],IC50,[1]; [13],1000 to 5000 nM
same,IC50,[2]; [14],> 5000 nM
CC1(C)CC(=O)C2=C(C1)Nc1n[nH]cc1[C@]21CCN(S(=O)(=O)c2cccc(F)c2)C1 [Compound 943488],IC50,[1]; [3],≤ 100 nM
same,IC50,[2]; [5],≤ 100 nM
CC1(C)CC(=O)C2=C(C1)Nc1n[nH]cc1[C@]21CCN(S(=O)(=O)c2ccccc2)C1 [Compound 951787],IC50,[1]; [11],≤ 100 nM
same,IC50,[1]; [4],≤ 100 nM
same,IC50,[2]; [12],≤ 100 nM
same,IC50,[2]; [6],100 to 1000 nM
Cc1ccc(C(=O)N2CC3(C2)CC2(CO3)C3=C(CC(C)(C)CC3=O)Nc3n[nH]cc32)cc1C (centres unmarked) [Compound 948038],IC50,[1]; [7],≤ 100 nM
same,IC50,[2]; [8],100 to 1000 nM
Cn1nccc1-c1cccc2c1CCC[C@]21C2=C(CC(C)(C)CC2=O)Nc2n[nH]cc21 [Compound 945551],IC50,[1]; [3],≤ 100 nM
same,IC50,[2]; [5],≤ 100 nM
CC[C@@]1(c2cccc(C(F)(F)F)c2)C2=C(Nc3n[nH]cc31)[C@@H](C)N(Cc1ccccc1)C2=O [Compound 930330],IC50,[1]; [11],≤ 100 nM
same,IC50,[2]; [12],100 to 1000 nM
